Results on 5 compounds are retold here after patent US11592438B2, “Device and method for force phenotyping of cells for high-throughput screening and analysis” (THE REGENTS OF THE UNIVERSITY OF CALIFORNIA, priority 2014, dated 2023).

No end group written: not given here.

In assay [1] the test system is primary human airway smooth muscle cells. Briefly: Pattern contraction / force generation screening of airway smooth muscle cells in 96 well plate. It counts as cell-based. The note with it: for contraction of ASM cells (pattern deflection): ASM cells exposed to the compound. The text has this:
The image processing software 36 identifies all instances of a given molecular pattern 16 in an image stack and determines how many cells (e.g., 0, 1, or 2+) are adhered to each pattern 16 based on images of those cells 11 with stained nuclei. A MATLAB script opens the image files and pairs the stained nuclei images (e.g., DAPI images) with the fluorescent images of the patterns 16 (e.g., FITC images). The image processing software 36 calculates characteristic pixel length(s) of a given pattern 16 for the cases of no cells adhered and one (1) cell adhered. The ‘FITC’ images may be linearly scaled up with, for example, the MATLAB function ‘imresize’ to improve resolution of these measurements. For those patterns with zero cells adhered thereto, the center of each pattern 16 may be determined using binary center-of-mass calculations. For those patterns 16 with one (1) cell adhered thereto, a series of binary dilation and erosion operations, followed by a binary center-of-mass calculation on patterns is performed. The erosion/dilation procedure is used to remove the potential asymmetry in the pattern 16 arising from cell-induced deformations that would otherwise impact the location of the center of mass. Patterns 16 with two or more nuclei are not analyzed. For each processed pattern 16 (those that are crosses or “X” shaped), the diagonal distance in pixels is measured between the calculated center and the bright edge of the pattern 16 in each direction as illustrated in FIG. 10. […] These measurements are stored, converted to microns based on the magnification used (typically 10×). These lengths are normalized to the median of those measured in patterns 16 with no cells (nominally 0 pixel deformations which is used as a control) and a relative distribution plot for patterns with one (1) cell is generated (see FIG. 8). Cropped images of each pattern 16 screened by the image processing software 36 in a given location and the images of the corresponding cell nuclei on those patterns 16 are saved and may be reviewed if an execution error is suspected. FIG. 8 illustrates examples of cropped DAPI and FITC images.
FIGS. 6A and 6B illustrate another embodiment of the invention. In this embodiment, a substrate 40 such as a plate having apertures 42 formed therein (non-tapered) is adhered to the layer 12 such that individual wells 44 are formed over the surface of the layer 12 with each well 44 containing a plurality of fluorescent patterns 16. […]
These patterns 16 are then used as the controls. For example, similarly shaped patterns with no cells 11 thereon may have their respective dimensions measured and a baseline established that is representative of no deflection in the pattern 16. […]

The subject of another assay is HeLa cells. Briefly: Dose-response force phenotyping of HeLa cells in well-based embodiment. It counts as cell-based, human. As to conditions: increased concentration, FIG. 12A. The text has this: The image processing software 36 identifies all instances of a given molecular pattern 16 in an image stack and determines how many cells (e.g., 0, 1, or 2+) are adhered to each pattern 16 based on images of those cells 11 with stained nuclei. A MATLAB script opens the image files and pairs the stained nuclei images (e.g., DAPI images) with the fluorescent images of the patterns 16 (e.g., FITC images). The image processing software 36 calculates characteristic pixel length(s) of a given pattern 16 for the cases of no cells adhered and one (1) cell adhered. The ‘FITC’ images may be linearly scaled up with, for example, the MATLAB function ‘imresize’ to improve resolution of these measurements. For those patterns with zero cells adhered thereto, the center of each pattern 16 may be determined using binary center-of-mass calculations. […] Patterns 16 with two or more nuclei are not analyzed. For each processed pattern 16 (those that are crosses or “X” shaped), the diagonal distance in pixels is measured between the calculated center and the bright edge of the pattern 16 in each direction as illustrated in FIG. 10. […] These lengths are normalized to the median of those measured in patterns 16 with no cells (nominally 0 pixel deformations which is used as a control) and a relative distribution plot for patterns with one (1) cell is generated (see FIG. 8). […]

Take `O=S(=O)(c1cccc2c(I)cccc12)N1CCCNCC1` [ML-7]: the “relaxation of smooth muscle contraction (reduction in deflection amount)” value in assay [1] (added after contraction by acetylcholine, enodthelin-1 or histamine, FIG. 11A) is recorded as “shown to relax smooth muscle contraction”.
On to “enodthelin-1 (CSCSSLMDKECVYFCHLDIIW; ends and bridges not checked; cysteine pairing not given here; UniProt P05305 53-73, looked up) [contractile stimulus for ASM cells]”, for which the “contraction of ASM cells (pattern deflection)” value in assay [1] (FIG. 11A) is on record as “contraction”.
On to `Cc1ccc2c(c1)C(=O)C1(O)CCN(c3ccccc3)C1=N2` (centres unmarked) [blebbistatin], for which the “deflection as function of concentration” value in the assay with HeLa cells was “less deflection”.
For the compound `CC(C)(C)NCC(O)c1ccc(O)c(CO)c1` (centres unmarked) [albuterol], in assay [1] (added after contraction in response to histamine, FIG. 11B), the “relaxation of ASM cells” value was “relaxation”.
Turning to `NCCc1c[nH]cn1` [histamine], in assay [1] (FIG. 11A), the “contraction of ASM cells (pattern deflection)” value is listed as “contraction”.
